Reference: the NIST ThermoML archive (doi:10.1021/acs.jced.5b00988)
Several values for one entry are separate records, joined by “and”; a condition that tells them apart may be missing. Equal values may be shown once. Numbers after ± are expanded uncertainties.

Columns and labels:
[1] = wn = mass fraction of the nth substance listed; details: 298.15 K, 102.5 kPa, Liquid; for viscosity: Concentric cylinders viscometry; for mass density: Vibrating tube method
[2] = Crystal; visual observation

In the case of O=[PH2][O-].[Na+] [sodium phosphinate] + O, the viscosity ([1]; w1 = 0.5196) is reported as 17.6 ± 0.38 mPa·s and the mass density ([1]; w1 = 0.5196) is reported as 1394 ± 3 kg/m3.
O=[PH2][O-].O=[PH2][O-].[Zn+2] [zinc(II) phosphinate] showed a Triple point temperature [2] of 446.15 ± 5 K.
For [Cl-].[Na+] [sodium chloride] + O, the viscosity ([1]; w1 = 0.2642) was 1.5 ± 0.03 mPa·s and 1.7 ± 0.04 mPa·s and the mass density ([1]; w1 = 0.2642) was 1194 ± 2 kg/m3 and 1214 ± 2 kg/m3.
Compound O=[PH2][O-].O=[PH2][O-].[Zn+2] [zinc(II) phosphinate] + O has a viscosity ([1]; w2 = 0.5196) of 2.04 ± 0.04 mPa·s and a mass density ([1]; w1 = 0.1861) of 1157 ± 2 kg/m3.
